Measurements from patent US12410208B2, “(2-acetamidyl)thio-beta-D-galactopyranoside derivatives” (Idorsia Pharmaceuticals Ltd, priority 2020, dated 2025).
Read-outs that look alike come from different tables or passages of the source.

Key:
[1] = molecular target: biotinylated human Gal-3 (hGal-3) (Homo sapiens, UniProt P17931); experiment: Competitive binding assay: biotinylated hGal-3 binding to microplate-adsorbed asialofetuin (ASF), spectrophotometric
Summary of the method: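 Serially diluted compounds competed with asialofetuin on the plate for biotinylated human Gal-3 during a 3 h incubation at 4° C. Streptavidin-peroxidase with ABTS gave the spectrophotometric signal. IC50 values were averaged over repeat runs.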

human Gal-1 (hGal-1) = human Gal-1 (hGal-1) (Homo sapiens, UniProt P09382); experiment: Competitive binding assay: biotinylated hGal-1 binding to microplate-adsorbed asialofetuin (ASF), spectrophotometric; details: hGal-1 binding to asialofetuin; Table 15; R and S epimers of selected Examples also listed; read-out: IC50 (Galectin-1 inhibition)
Chain of human Gal-1 (hGal-1) (P09382 whole entry): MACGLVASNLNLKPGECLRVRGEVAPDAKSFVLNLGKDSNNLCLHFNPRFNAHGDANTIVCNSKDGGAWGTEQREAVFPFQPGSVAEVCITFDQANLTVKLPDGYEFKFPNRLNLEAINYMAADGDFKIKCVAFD
Summary of the method: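 Spectrophotometric competition readout with ABTS after streptavidin-peroxidase (80 ng/mL, 1 h, 4 °C) detection of bound biotinylated hGal-1.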

[2] = Gal-3 inhibition, Table 7, read-out: IC50
[3] = Table 13, hGal-3, read-out: IC50 (Gal-3 inhibition)
[4] = Table 11, hGal-3, read-out: IC50 (Gal-3 inhibition)

Chain of biotinylated human Gal-3 (hGal-3) (P17931 whole entry): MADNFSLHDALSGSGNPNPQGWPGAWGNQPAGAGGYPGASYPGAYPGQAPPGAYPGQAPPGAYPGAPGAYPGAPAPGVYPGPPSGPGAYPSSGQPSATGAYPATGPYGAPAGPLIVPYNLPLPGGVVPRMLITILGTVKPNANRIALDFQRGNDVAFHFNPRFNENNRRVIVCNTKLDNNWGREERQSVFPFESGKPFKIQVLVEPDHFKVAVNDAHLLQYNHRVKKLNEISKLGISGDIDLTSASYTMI

IC50 [1, 2]	IC50 (human Gal-1 (hGal-1))	IC50 [1, 3]	IC50 [1, 4]	SMILES
	170 nM	120 nM		CO[C@@H]1[C@@H](n2cc(-c3cc(F)c(F)c(F)c3)nn2)[C@@H](O)[C@@H](CO)O[C@H]1SC(C(=O)N1CCC(F)(F)CC1)C1(O)CCC2(CC2)CC1 (stereo partly drawn) [Example 2.67.226.1., 1-(4,4-Difluoropiperidin-1-yl)-2-(((2S,3R,4S,5R,6R)-5-hydroxy-6-(hydroxymethyl)-3-methoxy-4-(4-(3,4,5-trifluorophenyl)-1H-1,2,3-triazol-1-yl)tetrahydro-2H-pyran-2-yl)thio)-2-(6-hydroxyspiro[2.5]octan-6-yl)ethan-1-one]
	1640 nM	570 nM		CO[C@@H]1[C@@H](n2cc(-c3cc(F)c(F)c(F)c3)nn2)[C@@H](O)[C@@H](CO)O[C@H]1S[C@@H](C(=O)N1CCC(F)(F)CC1)C1(O)CCC2(CCC2)CC1 [Example 2.69.226R.I., (R)-1-(4,4-Difluoropiperidin-1-yl)-2-(((2S,3R,4S,5R,6R)-5-hydroxy-6-(hydroxymethyl)-3-methoxy-4-(4-(3,4,5-trifluorophenyl)-1H-1,2,3-triazol-1-yl)tetrahydro-2H-pyran-2-yl)thio)-2-(7-hydroxyspiro[3.5]nonan-7-yl)ethan-1-one]
	270 nM	120 nM		CO[C@@H]1[C@@H](n2cc(-c3cc(F)c(F)c(F)c3)nn2)[C@@H](O)[C@@H](CO)O[C@H]1S[C@H](C(=O)N1CCC(F)(F)CC1)C1(O)CCC2(CCC2)CC1 [Example 2.69.226S.I., (S)-1-(4,4-Difluoropiperidin-1-yl)-2-(((2S,3R,4S,5R,6R)-5-hydroxy-6-(hydroxymethyl)-3-methoxy-4-(4-(3,4,5-trifluorophenyl)-1H-1,2,3-triazol-1-yl)tetrahydro-2H-pyran-2-yl)thio)-2-(7-hydroxyspiro[3.5]nonan-7-yl)ethan-1-one]
	270 nM	100 nM		CO[C@@H]1[C@@H](n2cc(-c3cc(F)c(F)c(F)c3)nn2)[C@@H](O)[C@@H](CO)O[C@H]1S[C@H](C(=O)N1CCC(F)(F)CC1)C1(O)CCC2(CCCC2)CC1 [Example 2.71.226S.I., (S)-1-(4,4-Difluoropiperidin-1-yl)-2-(((2S,3R,4S,5R,6R)-5-hydroxy-6-(hydroxymethyl)-3-methoxy-4-(4-(3,4,5-trifluorophenyl)-1H-1,2,3-triazol-1-yl)tetrahydro-2H-pyran-2-yl)thio)-2-(8-hydroxyspiro[4.5]decan-8-yl)ethan-1-one]
	120 nM	60 nM		CO[C@@H]1[C@@H](n2cc(-c3cc(F)c(F)c(F)c3)nn2)[C@@H](O)[C@@H](CO)O[C@H]1SC(C(=O)N1CCC(F)(F)CC1)C1(O)CCC2(CCOCC2)CC1 (stereo partly drawn) [Example 2.72.226.I., 1-(4,4-Difluoropiperidin-1-yl)-2-(((2S,3R,4S,5R,6R)-5-hydroxy-6-(hydroxymethyl)-3-methoxy-4-(4-(3,4,5-trifluorophenyl)-1H-1,2,3-triazol-1-yl)tetrahydro-2H-pyran-2-yl)thio)-2-(9-hydroxy-3-oxaspiro[5.5]undecan-9-yl)ethan-1-one]
	39600 nM	14900 nM		CO[C@@H]1[C@@H](n2cc(-c3cc(F)c(F)c(F)c3)nn2)[C@@H](O)[C@@H](CO)O[C@H]1S[C@@H](C(=O)N1CCC(F)(F)CC1)C1(O)CCC2(CCOCC2)CC1 [Example 2.72.226R.I., (R)-1-(4,4-Difluoropiperidin-1-yl)-2-(((2S,3R,4S,5R,6R)-5-hydroxy-6-(hydroxymethyl)-3-methoxy-4-(4-(3,4,5-trifluorophenyl)-1H-1,2,3-triazol-1-yl)tetrahydro-2H-pyran-2-yl)thio)-2-(9-hydroxy-3-oxaspiro[5.5]undecan-9-yl)ethan-1-one]
	100 nM	40 nM		CO[C@@H]1[C@@H](n2cc(-c3cc(F)c(F)c(F)c3)nn2)[C@@H](O)[C@@H](CO)O[C@H]1S[C@H](C(=O)N1CCC(F)(F)CC1)C1(O)CCC2(CCOCC2)CC1 [Example 2.72.226S.I., (S)-1-(4,4-Difluoropiperidin-1-yl)-2-(((2S,3R,4S,5R,6R)-5-hydroxy-6-(hydroxymethyl)-3-methoxy-4-(4-(3,4,5-trifluorophenyl)-1H-1,2,3-triazol-1-yl)tetrahydro-2H-pyran-2-yl)thio)-2-(9-hydroxy-3-oxaspiro[5.5]undecan-9-yl)ethan-1-one]

More lines, now with the values behind:

SMILES	IC50 [1, 2]	IC50 (human Gal-1 (hGal-1))	IC50 [1, 3]	IC50 [1, 4]
Cn1ccc(C(O)C(S[C@@H]2O[C@H](CO)[C@H](O)[C@H](n3cc(-c4cc(F)c(F)c(F)c4)nn3)[C@H]2O)C(=O)N2CCC2)n1 (stereo partly drawn) [Example 2.65.206., 1-(Azetidin-1-yl)-2-(((2S,3R,4S,5R,6R)-3,5-dihydroxy-6-(hydroxymethyl)-4-(4-(3,4,5-trifluorophenyl)-1H-1,2,3-triazol-1-yl)tetrahydro-2H-pyran-2-yl)thio)-3-hydroxy-3-(1-methyl-1H-pyrazol-3-yl)propan-1-one]	1040 nM	7290 nM		
CN(CC1CC1)C(=O)C(S[C@@H]1O[C@H](CO)[C@H](O)[C@H](n2cc(-c3cc(F)c(F)c(F)c3)nn2)[C@H]1O)C(O)c1ccn(C)n1 (stereo partly drawn) [Example 2.65.218., N-(cyclopropylmethyl)-2-(((2S,3R,4S,5R,6R)-3,5-dihydroxy-6-(hydroxymethyl)-4-(4-(3,4,5-trifluorophenyl)-1H-1,2,3-triazol-1-yl)tetrahydro-2H-pyran-2-yl)thio)-3-hydroxy-N-methyl-3-(1-methyl-1H-pyrazol-3-yl)propanamide]	690 nM	3070 nM		
CO[C@@H]1[C@@H](n2cc(-c3cc(F)c(F)c(F)c3)nn2)[C@@H](O)[C@@H](CO)O[C@H]1SC(C(=O)N1CCC(F)(F)CC1)C1(O)CCC(C)(C)CC1 (stereo partly drawn) [Example 2.68.226.I., 1-(4,4-Difluoropiperidin-1-yl)-2-(1-hydroxy-4,4-dimethylcyclohexyl)-2-(((2S,3R,4S,5R,6R)-5-hydroxy-6-(hydroxymethyl)-3-methoxy-4-(4-(3,4,5-trifluorophenyl)-1H-1,2,3-triazol-1-yl)tetrahydro-2H-pyran-2-yl)thio)ethan-1-one]		190 nM	100 nM	
CO[C@@H]1[C@@H](n2cc(-c3cc(F)c(F)c(F)c3)nn2)[C@@H](O)[C@@H](CO)O[C@H]1SC(C(=O)N1CCC(F)(F)CC1)C1(O)CCC2(CC1)COC2 (stereo partly drawn) [Example 2.70.226.I., 1-(4,4-Difluoropiperidin-1-yl)-2-(((2S,3R,4S,5R,6R)-5-hydroxy-6-(hydroxymethyl)-3-methoxy-4-(4-(3,4,5-trifluorophenyl)-1H-1,2,3-triazol-1-yl)tetrahydro-2H-pyran-2-yl)thio)-2-(7-hydroxy-2-oxaspiro[3.5]nonan-7-yl)ethan-1-one]		200 nM	110 nM	
CO[C@@H]1[C@@H](n2cc(-c3cc(F)c(F)c(F)c3)nn2)[C@@H](O)[C@@H](CO)O[C@H]1S[C@@H](C(=O)N1CCC(F)(F)CC1)C1(O)CCC2(CCCC2)CC1 [Example 2.71.226R.I., (R)-1-(4,4-Difluoropiperidin-1-yl)-2-(((2S,3R,4S,5R,6R)-5-hydroxy-6-(hydroxymethyl)-3-methoxy-4-(4-(3,4,5-trifluorophenyl)-1H-1,2,3-triazol-1-yl)tetrahydro-2H-pyran-2-yl)thio)-2-(8-hydroxyspiro[4.5]decan-8-yl)ethan-1-one]		1100 nM	670 nM	
CCN(C)C(=O)C(S[C@@H]1O[C@H](CO)[C@H](O)[C@H](n2cc(-c3cc(F)c(C)c(F)c3)nn2)[C@H]1O)C1(O)CCOCC1 (stereo partly drawn) [Example 3.41.203., 2-(((2S,3R,4S,5R,6R)-4-(4-(3,5-Difluoro-4-methylphenyl)-1H-1,2,3-triazol-1-yl)-3,5-dihydroxy-6-(hydroxymethyl)tetrahydro-2H-pyran-2-yl)thio)-N-ethyl-2-(4-hydroxytetrahydro-2H-pyran-4-yl)-N-methylacetamide]		680 nM		40 nM
CCN(C)C(=O)C(S[C@@H]1O[C@H](CO)[C@H](O)[C@H](n2cc(-c3cc(F)cc(F)c3)nn2)[C@H]1O)C1(O)CCOCC1 (stereo partly drawn) [Example 10.41.203., 2-(((2S,3R,4S,5R,6R)-4-(4-(3,5-Difluorophenyl)-1H-1,2,3-triazol-1-yl)-3,5-dihydroxy-6-(hydroxymethyl)tetrahydro-2H-pyran-2-yl)thio)-N-ethyl-2-(4-hydroxytetrahydro-2H-pyran-4-yl)-N-methylacetamide]		270 nM		100 nM
CCN(C)C(=O)C(S[C@@H]1O[C@H](CO)[C@H](O)[C@H](n2cc(-c3cc(F)c(Cl)c(F)c3)nn2)[C@H]1O)C1(O)CCOCC1 (stereo partly drawn) [Example 11.41.203., 2-(((2S,3R,4S,5R,6R)-4-(4-(4-Chloro-3,5-difluorophenyl)-1H-1,2,3-triazol-1-yl)-3,5-dihydroxy-6-(hydroxymethyl)tetrahydro-2H-pyran-2-yl)thio)-N-ethyl-2-(4-hydroxytetrahydro-2H-pyran-4-yl)-N-methylacetamide]		320 nM		30 nM
CCN(C)C(=O)C(S[C@@H]1O[C@H](CO)[C@H](O)[C@H](n2cc(-c3ccc(Br)c(F)c3)nn2)[C@H]1O)C1(O)CCOCC1 (stereo partly drawn) [Example 12.41.203., 2-(((2S,3R,4S,5R,6R)-4-(4-(4-Bromo-3-fluorophenyl)-1H-1,2,3-triazol-1-yl)-3,5-dihydroxy-6-(hydroxymethyl)tetrahydro-2H-pyran-2-yl)thio)-N-ethyl-2-(4-hydroxytetrahydro-2H-pyran-4-yl)-N-methylacetamide]		360 nM		40 nM
CCN(C)C(=O)C(S[C@@H]1O[C@H](CO)[C@H](O)[C@H](n2cc(-c3cc(F)cc(Cl)c3)nn2)[C@H]1O)C1(O)CCOCC1 (stereo partly drawn) [Example 13.41.203., 2-(((2S,3R,4S,5R,6R)-4-(4-(3-Chloro-5-fluorophenyl)-1H-1,2,3-triazol-1-yl)-3,5-dihydroxy-6-(hydroxymethyl)tetrahydro-2H-pyran-2-yl)thio)-N-ethyl-2-(4-hydroxytetrahydro-2H-pyran-4-yl)-N-methylacetamide]		130 nM		80 nM
